Results reported in publication PMC2441954, “Phase I pharmacokinetic and pharmacodynamic study of the prenyl transferase inhibitor AZD3409 in patients with advanced cancer” (British Journal of Cancer, 2008).

Experiments:
[1] = Phase I dose escalation, toxicity (CTC v2.0) in patients with advanced solid malignancies; assay type: in vivo
Protocol: The study was divided into two parts. Part A was an open-label dose-escalation study to define the maximum tolerated dose (MTD). Part B was an enrichment phase in female patients having advanced breast cancer for whom there was no standard therapy available.
AZD3409 was administered continuously starting on day 1 of each cycle of 21 days. A modified Fibonacci schedule was used for dose escalation, starting from 500 mg AZD3409. […] At least three patients were treated at each dose level. The occurrence of a DLT in a patient during the first cycle led to enrolment of three additional patients. Patients with progressive disease were removed from the study and patients who were removed within the first cycle of the study for reasons other than drug-related toxicity were replaced.
Pretreatment evaluation included a complete medical history and physical examination. Measurable and evaluable disease was documented before the start of the study and during the study as a basis for the assessment of clinical activity of the treatment. Tumour response was recorded according to RECIST criteria ([Therasse et al, 2000]). Toxicity was monitored at each visit. […] DLT was defined as any of the following events during the first treatment cycle: grade 3 or 4 anaemia or thrombocytopaenia, febrile neutropaenia grade 3, or grade 4 neutropaenia, grade 3 or 4 biochemical toxicity, grade 2 (or worse) nausea and vomiting despite optimal antiemetic therapy, grade 3 or 4 diarrhoea despite optimal loperamide support, failure to take study medication for 7 days or more within the first treatment cycle due to drug-related toxicity or any CTC grade 3 or 4 nonhaematological toxicity (excluding alopaecia). The MTD was defined as the dose below the dose at which two or three of three, or two or more of six patients experienced DLT during cycle 1.

FTase = biological target: FTase; parameters: method as in Stephens et al, 2003; details: Ki4B-Ras as substrate; ref Stephens et al, 2003; cited from earlier work
GGTase-1 = biological target: GGTase-1; parameters: method as in Stephens et al, 2003; details: Ki4B-Ras as substrate; ref Stephens et al, 2003; cited from earlier work
[2] = system: RT-112 urothelial cells xenografts; parameters: method as in Stephens et al, 2003; Kelly et al, 2005; details: mice bearing RT-112 xenografts; ref Stephens et al, 2003; Kelly et al, 2005; cited from earlier work
cytochrome P450 = system: cytochrome P450; parameters: method as in unpublished data; details: once daily oral dosing to rats for 28 days; ref unpublished data; cited from earlier work
[3] = system: 253J-BV urothelial cells xenografts; parameters: method as in Stephens et al, 2003; Kelly et al, 2005; details: mice bearing 253J-BV xenografts; ref Stephens et al, 2003; Kelly et al, 2005; cited from earlier work
tumour cells = system: tumour cells; parameters: method as in Kelly et al, 2005; details: in vitro; corresponds to the μM values; ref Kelly et al, 2005; cited from earlier work
[4] = system: H-Ras-transformed mouse 3T3 fibroblasts (Hras5) xenografts; parameters: method as in Stephens et al, 2003; Kelly et al, 2005; details: mice bearing Hras5 xenografts; ref Stephens et al, 2003; Kelly et al, 2005; cited from earlier work
solid malignant tumour = assay: Tumour response (RECIST) in phase I patients; assay type: in vivo, human
Protocol: Pretreatment evaluation included a complete medical history and physical examination. Measurable and evaluable disease was documented before the start of the study and during the study as a basis for the assessment of clinical activity of the treatment. Tumour response was recorded according to RECIST criteria ([Therasse et al, 2000]). Toxicity was monitored at each visit. All toxicities observed were graded according to the Common Toxicity Criteria, version 2.0 ([National Cancer Institute, 1998]). DLT was defined as any of the following events during the first treatment cycle: grade 3 or 4 anaemia or thrombocytopaenia, febrile neutropaenia grade 3, or grade 4 neutropaenia, grade 3 or 4 biochemical toxicity, grade 2 (or worse) nausea and vomiting despite optimal antiemetic therapy, grade 3 or 4 diarrhoea despite optimal loperamide support, failure to take study medication for 7 days or more within the first treatment cycle due to drug-related toxicity or any CTC grade 3 or 4 nonhaematological toxicity (excluding alopaecia). The MTD was defined as the dose below the dose at which two or three of three, or two or more of six patients experienced DLT during cycle 1.

Calu-6 xenograft = system: Calu-6 xenograft; parameters: method as in unpublished data; details: Calu-6 xenograft model, ref unpublished data, cited from earlier work
[5] = healthy male volunteers; earlier trial, no reference given; cited from earlier work
[6] = parameters: method as in Kelly et al, 2005; details: rats, oral dosing, pilot mass balance study; ref Kelly et al, 2005; cited from earlier work
[7] = all dose levels, drug-related nonhaematological toxicity
[8] = cycle 1, 250 mg b.i.d. (part B, fed state), 3 patients
[9] = cycle 1, 750 mg b.i.d., 8 patients
[10] = cycle 1, 1250 mg b.i.d., 6 patients
[11] = cycle 1, 1500 mg b.i.d., 2 patients
[12] = cycle 1, 1750 mg b.i.d., 4 patients
[13] = cycle 1, all doses, 29 patients

CSCC[C@H](NC(=O)c1cc(NC[C@@H]2C[C@H](S)CN2)ccc1CCc1ccc(F)cc1)C(=O)O [AZD3409 acid]
chance to suffer from vomiting (grade 1–2) due to the medication ([1]; at maximal AZD3409 acid plasma concentrations up to 140 ng ml^−1, cycle 1, n=22): below 15% | Ki (FTase): < 1 nM | Ki (GGTase-1): 8 nM

CSCC[C@H](NC(=O)c1cc(NC[C@@H]2C[C@H](SC(=O)c3cccnc3)CN2)ccc1CCc1ccc(F)cc1)C(=O)OC(C)C [AZD3409]
dose-limiting gastrointestinal toxicity (grade 3 diarrhoea, grade 3 dehydration, grade 2/3 nausea, grade 2 vomiting) ([1]; 1250 mg b.i.d.): three out of six patients | dose-limiting toxicity: unable to continue due to grade 3 diarrhoea and uncontrolled nausea (grade 2), respectively ([1]; 1500 mg b.i.d.): two patients | dose-limiting toxicity: unable to take the drug due to CTC grade 2 vomiting in spite of antiemetics ([1]; 1750 mg b.i.d.): two patients | diarrhoea, patients reporting [1, 7]: 41% | nausea, patients reporting [1, 7]: 55% | vomiting, patients reporting [1, 7]: 55% | haematological toxicity ([1]; cycle 1, 29 evaluable patients): No significant haematological toxicity | Nausea grade 1–2, number of patients [1, 8]: 1 | Vomiting grade 1–2, number of patients [1, 8]: 2 | Anorexia grade 1–2, number of patients ([1]; cycle 1, 500 mg, 3 patients): 1 | Fatigue grade 1–2, number of patients ([1]; cycle 1, 500 mg, 3 patients): 1 | Nausea grade 1–2, number of patients ([1]; cycle 1, 500 mg, 3 patients): 1 | Vomiting grade 1–2, number of patients ([1]; cycle 1, 500 mg, 3 patients): 1 | Abdominal pain grade 1–2, number of patients [1, 9]: 1 | Anorexia grade 1–2, number of patients [1, 9]: 2 | Diarrhoea grade 1–2, number of patients [1, 9]: 3 | Fatigue grade 1–2, number of patients [1, 9]: 2 | Nausea grade 1–2, number of patients [1, 9]: 5 | Vomiting grade 1–2, number of patients [1, 9]: 4 | Diarrhoea grade 1–2, number of patients ([1]; cycle 1, 1000 mg, 3 patients): 3 | Nausea grade 1–2, number of patients ([1]; cycle 1, 1000 mg, 3 patients): 2 | Vomiting grade 1–2, number of patients ([1]; cycle 1, 1000 mg, 3 patients): 2 | Abdominal pain grade 1–2, number of patients [1, 10]: 2 | Anorexia grade 1–2, number of patients [1, 10]: 1 | Diarrhoea grade 1–2, number of patients [1, 10]: 2 | Diarrhoea grade 3–4, number of patients [1, 10]: 1 | Fatigue grade 1–2, number of patients [1, 10]: 1 | Nausea grade 1–2, number of patients [1, 10]: 3 | Nausea grade 3–4, number of patients [1, 10]: 1 | Vomiting grade 1–2, number of patients [1, 10]: 3 | Diarrhoea grade 3–4, number of patients [1, 11]: 1 | Nausea grade 1–2, number of patients [1, 11]: 1 | Vomiting grade 1–2, number of patients [1, 11]: 1 | Anorexia grade 1–2, number of patients [1, 12]: 2 | Diarrhoea grade 1–2, number of patients [1, 12]: 4 | Fatigue grade 1–2, number of patients [1, 12]: 1 | Nausea grade 1–2, number of patients [1, 12]: 3 | Vomiting grade 1–2, number of patients [1, 12]: 3 | Abdominal pain grade 1–2, total [1, 13]: 3 (10) n (%) | Anorexia grade 1–2, total [1, 13]: 6 (21) n (%) | Diarrhoea grade 1–2, total [1, 13]: 12 (41) n (%) | Diarrhoea grade 3–4, total [1, 13]: 2 (7) n (%) | Fatigue grade 1–2, total [1, 13]: 5 (17) n (%) | Nausea grade 1–2, total [1, 13]: 16 (55) n (%) | Nausea grade 3–4, total [1, 13]: 1 (3) n (%) | Vomiting grade 1–2, total [1, 13]: 16 (55) n (%) | MTD of part A ([1]; patients, fasted state, continuous oral dosing): 750 mg b.i.d. | tumour weight [2]: significant reduction of tumour weight | changes in cytochrome P450 content or enzyme activity (cytochrome P450): no biologically significant changes | tumour weight [3]: significant reduction of tumour weight | IC50 inhibition of cell proliferation of tumour cells, converted (tumour cells): 0.035 to 3.5 µg/mL | tumour weight [4]: significant reduction of tumour weight | objective tumour response (solid malignant tumour; 18 evaluable patients after 4–14 weeks of treatment): No objective tumour response was observed | patients with stable disease (solid malignant tumour; out of 16 patients, after approximately 2 months): 3 | patients with stable disease (solid malignant tumour; three of 18 evaluable patients, stable for 47, 48 and 76 days): 17% | reduction of the tumour volume (Calu-6 xenograft; associated with 66% FTase inhibition): 15% | inhibition of FTase (Calu-6 xenograft): 66% | dose at which diarrhoea was dose limiting [5]: 2500 mg once daily | maximum tolerated single dose [5]: 1750 mg | given radioactivity excreted in the urine [6]: 1%
